Reference: US4406875A, “Radiolabeled amine compounds and their use” (Byk-Mallinckrodt CIL B.V., priority 1979, dated 1983)

Legend:
[1] = Stability towards deiodination and tissue incorporation after intravenous administration to rabbits; assay type: in vivo, New Zealand white rabbits; conditions: rabbit
Experimental: The radiolabeled amine compound N-(5-aminopentyl)-5-iodonaphthalenesulfonamide,I-`125 is tested for stability towards deiodination and for tissue incorporation by administering the compound to rabbits.
Two test solutions each of about 0.5 mCi of the above compound (spec. activity of about 1 mCi/mg) in about 1.45 ml of a physiological saline solution are prepared. A test solution is then intravenously administered to two New Zealand white rabbits, each weighing about 3 kg.
A blood sample is then taken from each rabbit at 12, 24, 36 and 72 hour periods after administration. The radioactivity of about 1 g of blood from samples for each time period is then measured. The measurements indicate that the radioactivity in the blood decreases slowly and that at about 72 hours after administration, about 20% of the initial radioactivity is still present in the blood. Due to the relatively slow disappearance of the subject compound from the bloodstream, the compound is therefore available in the bloodstream for a prolonged period of time which thereby increases its suitability to become incorporated into an occurring thrombus.
At the end of the 72 hour period, the rabbits are sacrificed and thereafter, the thyroid, liver, kidneys, lung, stomach wall, parotid glands, brains, muscle and bone tissue are removed and portions are measured for radioactivity. The thyroid contains only about 0.05% of the injected dose per gram which thereby indicates the stability of the subject compound towards deiodination. […] The liver contains about 0.04% and the gall bladder contains about 0.1% of the injected dose while the kidneys and the urine both contain about 0.3% of the dose.

fibrin = assay: Incorporation of the radiolabeled compound into a fibrin clot (human fibrinogen, Factor XIII, human thrombin); assay type: biochemical; conditions: incubated about three and a half hours at about 37° C.; clot washed three times
Experimental: The radiolabeled amine compound N-(5-aminopentyl)-5-iodonaphthalenesulfonamide,I-125 is tested for its ability to be incorporated into fibrin.
The following solutions are mixed in a polystyrene test tube; (a) about 1 ml of a solution containing about 5 mg/ml of human fibrinogen (about 1.5×10^-5 M) and a tris-HCl buffer in a concentration of about 5×10^-3 M, the solution having a pH of about 7.4, (b) about 0.1 ml of a saline solution containing about 4×10^-2 units of blood Factor XIII, (c) about 0.1 ml of a 0.05 M cysteine solution having a pH of about 7.4, and (d) about 0.1 ml of a solution containing the N-(5-aminopentyl)-5-iodonaphthalenesulfonamide,I-125 compound in a concentration of about 2.3×10^-5 mmole and a radioactivity of about 1 μCi. Thereafter, about 0.2 ml of solution of about 0.05 M tris buffer and about 0.025 M CaCl2 which contains about 10 NIH units of human thrombin and has a pH of about 7.4 is added.
The resultant mixture is then incubated for about three and a half hours at about 37° C. whereupon a fibrin clot is formed. […] The radioactivity of the solution and the clot are then measured in a suitable detection apparatus. From these radioactivity measurements, it is determined that about 15% of the initial radioactivity is incorporated into the fibrin clot.

blood clot factor XIII = assay: In vitro incorporation of the radiolabeled compound in casein by blood clot factor XIII (Km, Lineweaver-Burke plot); assay type: biochemical
Experimental: Incorporation of the radiolabeled compound produced in Example I in fibrin by means of the blood clot factor XIII was investigated in vitro in the following manner:
To about 400 ul of a physiolgical salt solution containing 10 units of Factor XIII per ml, the following solutions were successively added; (a) about 500 ul of 0.5 molar solution of cystein in a buffer solution of tris(hydroxymethyl)aminomethane having a pH of 7.4, (b) about 100 ul of a buffer solution of tris (hydroxymethyl) aminomethane having a pH of about 7.4 and in which about 250 units of thrombine per ml had been dissolved, (c) about 1200 ul of a buffer solution of tris(hydroxymethyl) aminomethane, (d) about 50 ul of 0.4 molar solution of calcium chloride in water, and (e) about 200 ul of 5% solution of casein in water. […]
After incubation of the test solutions at about 37° C. for about 15 minutes, the reaction was discontinued by the addition of about 200 ul of a 1 molar solution of monoidoacetic acid which has been brought to a pH of about 7.4 by a sodium hydroxide solution. […] The radioactivity in the high-molecular fraction was then measured to determine if the radiolabeled sulfonamide compound had indeed been incorporated into the casein. […]

radioactivity in gall bladder ([1]; 72 hours) | radioactivity in kidneys ([1]; 72 hours) | radioactivity in liver ([1]; 72 hours) | radioactivity in urine ([1]; 72 hours) | initial radioactivity still present in the blood ([1]; about 0.5 mCi, about 72 hours after administration) | tissue uptake at 72 h ([1]; thyroid, 72 hours, indicates stability towards deiodination, read-out: radioactivity in thyroid) [%ID/g] | Km (blood clot factor XIII; casein as acceptor, 37° C., 15 minutes, pH 7.4, Lineweaver-Burke plot from measured radioactivity) [µM] | SMILES | initial radioactivity incorporated into the fibrin clot (fibrin) | incorporation in casein (in words) (blood clot factor XIII; casein)
about 0.1 % of the injected dose | about 0.3 % of the dose | about 0.04 % of the injected dose | about 0.3 % of the dose | about 20% | ~0.05 | – | NCCCCCNS(=O)(=O)c1cccc2c([125I])cccc12 [N-(5-aminopentyl)-5-iodonaphthalenesulfonamide,I-125] | about 15% | –
– | – | – | – | – | – | 250 | NCCCCCNS(=O)(=O)c1cccc2c([131I])cccc12 [N-(5-aminopentyl)-5-iodonaphthalene-1-sulfonamide-I-131] | – | amply sufficient to be incorporated efficiently in casein
